Results from the kinase profiling compilation of Christmann-Franck et al. (2016).

Experiments:
Assay in all cases: KINOMEscan competition binding
Conditions in all cases: compound 10.0 µM
[1] = molecular target: ANKK1 (human) (UniProt Q8NFD2)
[2] = molecular target: AURKC (human) (UniProt Q9UQB9)
[3] = molecular target: BMPR2 (human) (UniProt Q13873)
[4] = molecular target: BRSK2 (human) (UniProt Q8IWQ3)
[5] = molecular target: CDK4 CCND3 (human) (UniProt P11802+P30281)
[6] = molecular target: CDKL5 (human) (UniProt O76039)
[7] = molecular target: CSNK1G1 (human) (UniProt Q9HCP0)
CSNK1G1 (human), sequence (Q9HCP0 whole entry, looked up): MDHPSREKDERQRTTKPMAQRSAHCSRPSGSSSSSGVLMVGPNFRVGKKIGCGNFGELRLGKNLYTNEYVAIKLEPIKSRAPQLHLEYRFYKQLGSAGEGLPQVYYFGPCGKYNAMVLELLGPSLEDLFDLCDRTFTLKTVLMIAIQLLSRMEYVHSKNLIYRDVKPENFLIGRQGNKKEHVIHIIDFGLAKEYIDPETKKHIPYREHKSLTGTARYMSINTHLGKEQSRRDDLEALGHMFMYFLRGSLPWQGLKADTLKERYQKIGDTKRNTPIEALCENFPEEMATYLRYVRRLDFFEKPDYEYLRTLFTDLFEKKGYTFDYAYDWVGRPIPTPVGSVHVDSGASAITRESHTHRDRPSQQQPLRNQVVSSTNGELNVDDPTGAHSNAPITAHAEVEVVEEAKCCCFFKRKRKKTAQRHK

[8] = molecular target: CSNK2A2 (human) (UniProt P19784)
[9] = molecular target: DAPK1 (human) (UniProt P53355)
[10] = molecular target: DDR2 (human) (UniProt Q16832)
DDR2 (human), sequence (Q16832 whole entry, looked up): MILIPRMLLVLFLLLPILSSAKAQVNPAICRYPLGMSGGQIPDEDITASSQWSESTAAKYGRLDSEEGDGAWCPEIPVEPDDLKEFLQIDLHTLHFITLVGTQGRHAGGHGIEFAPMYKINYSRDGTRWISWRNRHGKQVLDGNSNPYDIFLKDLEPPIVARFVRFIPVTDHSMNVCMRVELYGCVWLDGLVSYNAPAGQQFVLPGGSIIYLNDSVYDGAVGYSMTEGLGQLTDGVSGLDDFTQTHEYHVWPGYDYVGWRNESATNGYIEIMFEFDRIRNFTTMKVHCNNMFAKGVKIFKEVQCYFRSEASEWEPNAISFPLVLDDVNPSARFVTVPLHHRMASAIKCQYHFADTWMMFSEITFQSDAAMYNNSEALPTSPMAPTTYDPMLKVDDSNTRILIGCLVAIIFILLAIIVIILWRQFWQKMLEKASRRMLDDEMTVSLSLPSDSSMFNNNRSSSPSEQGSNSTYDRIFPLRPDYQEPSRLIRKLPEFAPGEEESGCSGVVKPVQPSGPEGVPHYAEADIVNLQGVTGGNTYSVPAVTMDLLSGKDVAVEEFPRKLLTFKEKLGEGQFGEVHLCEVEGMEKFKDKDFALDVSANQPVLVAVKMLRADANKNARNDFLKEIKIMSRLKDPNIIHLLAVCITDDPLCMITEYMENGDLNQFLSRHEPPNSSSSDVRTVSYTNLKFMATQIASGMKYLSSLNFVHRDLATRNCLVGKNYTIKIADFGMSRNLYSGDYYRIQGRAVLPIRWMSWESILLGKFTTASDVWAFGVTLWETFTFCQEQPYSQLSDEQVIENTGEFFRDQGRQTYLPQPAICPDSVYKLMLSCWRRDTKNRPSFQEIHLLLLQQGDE

[11] = molecular target: DYRK2 (human) (UniProt Q92630)
[12] = molecular target: EGFR (human) (UniProt P00533)
[13] = molecular target: EPHA7 (human) (UniProt Q15375)
[14] = molecular target: GSK3B (human) (UniProt P49841)
[15] = molecular target: HIPK1 (human) (UniProt Q86Z02)
HIPK1 (human), sequence (Q86Z02 whole entry, looked up): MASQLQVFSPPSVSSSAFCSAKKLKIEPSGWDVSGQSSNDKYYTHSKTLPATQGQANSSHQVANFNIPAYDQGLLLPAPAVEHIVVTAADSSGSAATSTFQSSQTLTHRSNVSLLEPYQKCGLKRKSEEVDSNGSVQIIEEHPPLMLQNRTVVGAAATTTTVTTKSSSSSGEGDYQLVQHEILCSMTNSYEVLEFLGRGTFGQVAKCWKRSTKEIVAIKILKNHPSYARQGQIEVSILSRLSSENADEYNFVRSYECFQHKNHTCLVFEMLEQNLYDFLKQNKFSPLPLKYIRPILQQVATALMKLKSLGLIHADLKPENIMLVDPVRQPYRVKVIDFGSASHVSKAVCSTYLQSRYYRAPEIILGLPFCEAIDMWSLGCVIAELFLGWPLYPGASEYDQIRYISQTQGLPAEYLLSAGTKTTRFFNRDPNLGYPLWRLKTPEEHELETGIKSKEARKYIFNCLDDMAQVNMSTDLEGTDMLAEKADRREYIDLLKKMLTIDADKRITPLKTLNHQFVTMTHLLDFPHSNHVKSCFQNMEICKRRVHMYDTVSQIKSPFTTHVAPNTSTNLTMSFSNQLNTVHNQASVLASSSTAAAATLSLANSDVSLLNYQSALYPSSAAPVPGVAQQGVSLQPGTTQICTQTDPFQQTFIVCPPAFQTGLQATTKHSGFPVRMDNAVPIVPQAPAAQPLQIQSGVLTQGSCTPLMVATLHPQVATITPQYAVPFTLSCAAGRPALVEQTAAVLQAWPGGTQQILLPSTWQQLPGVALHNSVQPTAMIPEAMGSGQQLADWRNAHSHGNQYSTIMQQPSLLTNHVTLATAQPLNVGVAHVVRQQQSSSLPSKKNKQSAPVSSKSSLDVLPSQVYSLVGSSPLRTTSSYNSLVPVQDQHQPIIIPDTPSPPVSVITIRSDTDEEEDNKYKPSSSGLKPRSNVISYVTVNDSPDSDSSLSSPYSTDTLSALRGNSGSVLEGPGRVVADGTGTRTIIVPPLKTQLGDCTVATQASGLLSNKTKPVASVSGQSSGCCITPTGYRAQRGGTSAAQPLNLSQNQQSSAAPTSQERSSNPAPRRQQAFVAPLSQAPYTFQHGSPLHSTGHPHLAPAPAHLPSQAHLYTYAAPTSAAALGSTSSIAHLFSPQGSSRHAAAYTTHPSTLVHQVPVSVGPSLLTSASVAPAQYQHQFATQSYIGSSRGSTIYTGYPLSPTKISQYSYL

[16] = molecular target: HUNK (human) (UniProt P57058)
HUNK (human), sequence (P57058 whole entry, looked up): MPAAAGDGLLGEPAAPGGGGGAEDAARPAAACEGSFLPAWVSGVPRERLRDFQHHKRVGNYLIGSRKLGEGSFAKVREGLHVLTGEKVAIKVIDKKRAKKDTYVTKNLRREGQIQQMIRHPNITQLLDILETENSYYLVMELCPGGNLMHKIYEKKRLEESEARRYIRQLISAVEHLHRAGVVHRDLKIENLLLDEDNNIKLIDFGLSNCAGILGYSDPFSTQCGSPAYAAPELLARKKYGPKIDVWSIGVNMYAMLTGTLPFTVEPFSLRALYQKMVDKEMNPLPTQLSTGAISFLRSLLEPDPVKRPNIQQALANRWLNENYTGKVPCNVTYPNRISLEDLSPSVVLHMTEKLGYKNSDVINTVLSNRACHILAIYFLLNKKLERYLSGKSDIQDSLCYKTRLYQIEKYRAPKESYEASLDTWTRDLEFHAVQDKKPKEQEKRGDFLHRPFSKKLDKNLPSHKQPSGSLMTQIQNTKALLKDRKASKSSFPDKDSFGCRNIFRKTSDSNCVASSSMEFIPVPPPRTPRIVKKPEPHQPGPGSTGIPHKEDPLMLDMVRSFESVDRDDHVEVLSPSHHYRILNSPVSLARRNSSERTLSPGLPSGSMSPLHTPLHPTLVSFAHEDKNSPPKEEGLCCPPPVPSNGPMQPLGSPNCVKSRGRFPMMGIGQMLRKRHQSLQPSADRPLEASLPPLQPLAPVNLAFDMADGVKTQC

[17] = molecular target: JAK3 JH1 catalytic (human) (UniProt P52333)
[18] = molecular target: KDR (human) (UniProt P35968)
[19] = molecular target: MAP3K5 (human) (UniProt Q99683)
[20] = molecular target: MAP4K4 (human) (UniProt O95819)
[21] = molecular target: MAPK3 (human) (UniProt P27361)
[22] = molecular target: MAPK4 (human) (UniProt P31152)
[23] = molecular target: MINK1 (human) (UniProt Q8N4C8)
[24] = molecular target: MUSK (human) (UniProt O15146)
[25] = molecular target: MYLK3 (human) (UniProt Q32MK0)
MYLK3 (human), sequence (Q32MK0 whole entry, looked up): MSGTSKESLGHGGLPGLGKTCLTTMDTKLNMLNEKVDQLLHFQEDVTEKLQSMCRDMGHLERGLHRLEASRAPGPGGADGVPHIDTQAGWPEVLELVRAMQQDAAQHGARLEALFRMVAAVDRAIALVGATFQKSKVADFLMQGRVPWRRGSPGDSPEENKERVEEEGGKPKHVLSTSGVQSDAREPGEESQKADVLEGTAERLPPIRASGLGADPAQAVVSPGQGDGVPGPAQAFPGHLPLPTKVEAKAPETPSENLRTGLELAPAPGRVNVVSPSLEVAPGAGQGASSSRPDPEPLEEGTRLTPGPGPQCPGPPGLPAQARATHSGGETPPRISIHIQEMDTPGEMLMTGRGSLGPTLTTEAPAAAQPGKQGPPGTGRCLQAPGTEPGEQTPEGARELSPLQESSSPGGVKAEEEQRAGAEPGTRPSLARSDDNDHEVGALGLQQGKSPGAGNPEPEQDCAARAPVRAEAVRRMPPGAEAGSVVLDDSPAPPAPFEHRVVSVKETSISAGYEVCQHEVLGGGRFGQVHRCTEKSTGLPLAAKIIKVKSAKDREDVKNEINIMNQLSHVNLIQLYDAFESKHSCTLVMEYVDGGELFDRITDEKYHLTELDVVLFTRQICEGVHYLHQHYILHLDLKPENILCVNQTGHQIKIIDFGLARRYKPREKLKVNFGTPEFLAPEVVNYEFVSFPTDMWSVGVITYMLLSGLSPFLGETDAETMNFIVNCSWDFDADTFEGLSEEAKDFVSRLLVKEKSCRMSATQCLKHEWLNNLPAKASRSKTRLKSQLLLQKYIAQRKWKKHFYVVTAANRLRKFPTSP

[26] = molecular target: MYO3A (human) (UniProt Q8NEV4)
[27] = molecular target: NEK4 (human) (UniProt P51957)
[28] = molecular target: PRKD2 (human) (UniProt Q9BZL6)
[29] = molecular target: PTK2 (human) (UniProt Q05397)
[30] = molecular target: RPS6KA6 KD1 (human) (UniProt Q9UK32)
[31] = molecular target: SGK110 (human) (UniProt P0C264)
[32] = molecular target: SLK (human) (UniProt Q9H2G2)
[33] = molecular target: STK10 (human) (UniProt O94804)
[34] = molecular target: STK32A (human) (UniProt Q8WU08)
STK32A (human), sequence (Q8WU08 whole entry, looked up): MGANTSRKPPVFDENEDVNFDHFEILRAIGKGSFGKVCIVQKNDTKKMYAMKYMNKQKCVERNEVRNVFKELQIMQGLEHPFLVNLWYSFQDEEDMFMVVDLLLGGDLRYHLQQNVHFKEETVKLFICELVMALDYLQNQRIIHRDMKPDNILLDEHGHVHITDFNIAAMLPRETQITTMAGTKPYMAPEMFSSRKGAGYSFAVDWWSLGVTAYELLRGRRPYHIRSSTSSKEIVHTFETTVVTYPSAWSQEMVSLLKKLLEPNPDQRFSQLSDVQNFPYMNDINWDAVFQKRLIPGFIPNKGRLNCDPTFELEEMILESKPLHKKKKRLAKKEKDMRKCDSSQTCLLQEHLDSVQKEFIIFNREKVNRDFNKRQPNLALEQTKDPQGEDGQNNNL

[35] = molecular target: STK38 (human) (UniProt Q15208)
[36] = molecular target: STK4 (human) (UniProt Q13043)
[37] = molecular target: TEK (human) (UniProt Q02763)
[38] = molecular target: TTK (human) (UniProt P33981)
[39] = molecular target: ULK1 (human) (UniProt O75385)
[40] = molecular target: ULK3 (human) (UniProt Q6PHR2)
ULK3 (human), sequence (Q6PHR2 whole entry, looked up): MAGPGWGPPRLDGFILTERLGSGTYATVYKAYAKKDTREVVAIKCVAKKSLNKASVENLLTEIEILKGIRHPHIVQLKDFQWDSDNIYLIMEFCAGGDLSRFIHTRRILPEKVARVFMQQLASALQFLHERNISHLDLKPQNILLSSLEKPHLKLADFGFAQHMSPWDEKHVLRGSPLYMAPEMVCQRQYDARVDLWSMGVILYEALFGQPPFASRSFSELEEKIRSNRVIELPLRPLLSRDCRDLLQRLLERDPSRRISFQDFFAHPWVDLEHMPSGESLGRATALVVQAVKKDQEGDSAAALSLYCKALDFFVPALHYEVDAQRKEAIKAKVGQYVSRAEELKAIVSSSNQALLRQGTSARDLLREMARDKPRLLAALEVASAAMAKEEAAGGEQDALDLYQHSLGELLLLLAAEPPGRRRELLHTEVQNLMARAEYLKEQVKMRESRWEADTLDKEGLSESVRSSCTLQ

Row | Structure (SMILES) | kinase still bound, per cent of control [1] | kinase still bound, per cent of control [2] | kinase still bound, per cent of control [3] | kinase still bound, per cent of control [4] | kinase still bound, per cent of control [5] | kinase still bound, per cent of control [6] | kinase still bound, per cent of control [7] | kinase still bound, per cent of control [8] | kinase still bound, per cent of control [9] | kinase still bound, per cent of control [10] | kinase still bound, per cent of control [11] | kinase still bound, per cent of control [12] | kinase still bound, per cent of control [13] | kinase still bound, per cent of control [14] | kinase still bound, per cent of control [15] | kinase still bound, per cent of control [16] | kinase still bound, per cent of control [17] | kinase still bound, per cent of control [18] | kinase still bound, per cent of control [19] | kinase still bound, per cent of control [20] | further results
1 | COc1cc(C(=O)N2CCC(N3CCN(C)CC3)CC2)ccc1Nc1ncc2c(n1)N(C)c1ccccc1C(=O)N2C | 100% | 50% | 87% | 64% | 100% | 100% | 100% | 93% | 73% | 100% | 76% | 84% | 97% | 88% | 100% | 100% | 100% | 84% | 100% | 85% | kinase still bound, per cent of control [21]: 100%; kinase still bound, per cent of control [22]: 100%; kinase still bound, per cent of control [23]: 77%; kinase still bound, per cent of control [24]: 99%; kinase still bound, per cent of control [25]: 100%; kinase still bound, per cent of control [26]: 94%; kinase still bound, per cent of control [27]: 95%; kinase still bound, per cent of control [28]: 59%; kinase still bound, per cent of control [29]: 34%; kinase still bound, per cent of control [30]: 92%; kinase still bound, per cent of control [31]: 62%; kinase still bound, per cent of control [32]: 100%; kinase still bound, per cent of control [33]: 100%; kinase still bound, per cent of control [34]: 100%; kinase still bound, per cent of control [35]: 96%; kinase still bound, per cent of control [36]: 100%; kinase still bound, per cent of control [37]: 100%; kinase still bound, per cent of control [38]: 28%; kinase still bound, per cent of control [39]: 80%; kinase still bound, per cent of control [40]: 100%
2 | COc1cc2ncnc(-n3nc(-c4ccccn4)nc3N)c2cc1OC | 12% | 6.2% | 88% | 14% | 60% | 0.3% | 33% | 5.2% | 3.6% | 22% | 0.25% | 52% | 18% | 100% | 0.55% | 41% | 33% | 52% | 100% | 69% | kinase still bound, per cent of control [21]: 67%; kinase still bound, per cent of control [22]: 85%; kinase still bound, per cent of control [23]: 40%; kinase still bound, per cent of control [24]: 71%; kinase still bound, per cent of control [25]: 100%; kinase still bound, per cent of control [26]: 72%; kinase still bound, per cent of control [27]: 41%; kinase still bound, per cent of control [28]: 65%; kinase still bound, per cent of control [29]: 80%; kinase still bound, per cent of control [30]: 20%; kinase still bound, per cent of control [31]: 100%; kinase still bound, per cent of control [32]: 28%; kinase still bound, per cent of control [33]: 12%; kinase still bound, per cent of control [34]: 64%; kinase still bound, per cent of control [35]: 51%; kinase still bound, per cent of control [36]: 61%; kinase still bound, per cent of control [37]: 45%; kinase still bound, per cent of control [38]: 20%; kinase still bound, per cent of control [39]: 6.6%; kinase still bound, per cent of control [40]: 10%
